The target in one data set is T1, α4β1 integrin (Homo sapiens, UniProt P05556+P13612).
T1 construct: endogenous in cells; host or cells: Ramos cells
In words: Adhesion of calcein-labeled Ramos cells to CS1 (fibronectin) peptide conjugated ovalbumin. It is filed as cell-based. The note with it: Ramos cell adhesion to CS1 conjugated ovalbumin, 30 minutes at 37° C. The method in brief: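 Plates bearing CS1 fibronectin peptide coupled to ovalbumin (0.5 μg/ml coat, 3% BSA block) received calcein-labelled Ramos cells plus compound (100 μM stated) for 30 min at 37 °C. Buffer was TBS pH 7.5 with 1 mM Mg2+, Ca2+, Mn2+; bound cells quantified by fluorescence after lysis; […].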

Consider seven molecules from US6972296B2, “Carboxylic acid derivatives that inhibit the binding of integrins to their receptors” (Encysive Pharmaceuticals Inc., priority 1999, dated 2005).

What is called IC50 is the point on the concentration scale where inhibition reaches its midpoint. By melting point is commonly meant the temperature, or range, at which the solid turns liquid.

T1 sequence (P13612 34-1032): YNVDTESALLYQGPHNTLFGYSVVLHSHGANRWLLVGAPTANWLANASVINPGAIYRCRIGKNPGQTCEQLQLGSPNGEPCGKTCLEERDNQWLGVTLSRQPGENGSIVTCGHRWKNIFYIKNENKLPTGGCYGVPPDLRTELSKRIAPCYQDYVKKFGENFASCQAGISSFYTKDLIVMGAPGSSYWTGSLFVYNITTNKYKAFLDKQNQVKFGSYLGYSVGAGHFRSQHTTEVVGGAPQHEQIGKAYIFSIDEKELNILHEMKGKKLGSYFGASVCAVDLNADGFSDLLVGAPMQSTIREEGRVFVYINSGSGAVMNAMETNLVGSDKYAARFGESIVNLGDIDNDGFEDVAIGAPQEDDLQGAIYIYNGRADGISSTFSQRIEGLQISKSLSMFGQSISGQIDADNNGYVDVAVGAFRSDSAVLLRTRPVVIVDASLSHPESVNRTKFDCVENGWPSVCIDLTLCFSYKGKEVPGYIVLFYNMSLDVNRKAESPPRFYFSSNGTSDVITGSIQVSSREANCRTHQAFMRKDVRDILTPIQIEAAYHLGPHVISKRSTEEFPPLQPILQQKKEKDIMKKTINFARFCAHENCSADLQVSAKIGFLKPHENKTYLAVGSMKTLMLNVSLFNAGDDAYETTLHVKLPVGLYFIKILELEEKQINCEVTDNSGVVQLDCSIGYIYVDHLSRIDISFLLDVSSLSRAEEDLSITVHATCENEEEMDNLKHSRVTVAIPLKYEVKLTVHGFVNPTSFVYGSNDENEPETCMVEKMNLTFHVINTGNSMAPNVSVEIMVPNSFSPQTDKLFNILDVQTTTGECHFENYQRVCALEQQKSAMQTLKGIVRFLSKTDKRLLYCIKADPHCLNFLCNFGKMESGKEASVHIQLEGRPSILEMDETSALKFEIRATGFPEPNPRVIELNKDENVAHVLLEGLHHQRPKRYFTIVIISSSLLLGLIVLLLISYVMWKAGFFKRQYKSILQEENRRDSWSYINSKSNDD
T1 sequence (P05556 21-798): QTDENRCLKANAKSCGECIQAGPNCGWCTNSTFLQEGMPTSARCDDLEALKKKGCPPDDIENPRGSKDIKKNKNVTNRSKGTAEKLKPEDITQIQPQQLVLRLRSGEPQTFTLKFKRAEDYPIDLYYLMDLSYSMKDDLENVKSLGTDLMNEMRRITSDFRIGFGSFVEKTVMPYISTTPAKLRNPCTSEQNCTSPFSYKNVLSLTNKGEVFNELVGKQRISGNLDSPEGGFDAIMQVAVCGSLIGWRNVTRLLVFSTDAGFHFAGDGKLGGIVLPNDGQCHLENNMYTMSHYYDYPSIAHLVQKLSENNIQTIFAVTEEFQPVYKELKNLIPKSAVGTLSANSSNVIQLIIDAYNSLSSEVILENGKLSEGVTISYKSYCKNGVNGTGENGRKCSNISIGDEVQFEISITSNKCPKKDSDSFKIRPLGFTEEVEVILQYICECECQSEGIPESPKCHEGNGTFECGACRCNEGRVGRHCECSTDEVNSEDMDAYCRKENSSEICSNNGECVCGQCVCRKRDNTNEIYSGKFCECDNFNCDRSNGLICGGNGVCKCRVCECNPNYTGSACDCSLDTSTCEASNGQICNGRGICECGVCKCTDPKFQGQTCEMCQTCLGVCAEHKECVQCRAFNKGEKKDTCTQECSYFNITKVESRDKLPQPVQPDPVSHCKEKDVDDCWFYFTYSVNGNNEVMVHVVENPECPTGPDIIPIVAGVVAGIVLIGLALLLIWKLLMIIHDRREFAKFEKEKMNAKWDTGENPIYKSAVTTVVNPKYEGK

Consider `CCCCN(C(=O)N[C@@H](CC(=O)O)c1ccc2c(c1)OCO2)C1CC(=O)N(Cc2ccccc2)C1=O` (stereo partly drawn) [(3S)-3-(1,3-benzodioxol-5-yl)-3-[({butyl[2,5-dioxo-1-(phenylmethyl)tetrahydro-1H-pyrrol-3-yl]amino}carbonyl)amino]propanoic acid], for which the melting point was in the range of 80 to 85 °C. Further, at α4β1 integrin (Table 4), the IC50 is 70000 nM.

The molecule `CCNC(=O)N(CC)C(=O)Nc1ccn(Cc2ccccc2Cl)c(=O)c1NC(=O)N[C@@H](CC(=O)O)c1ccc(C)cc1` [(3S)-3-{[({1-[(2-chlorophenyl)methyl]-4-[({ethyl[(ethylamino)carbonyl]amino}carbonyl)amino]-2-oxo-1,2-dihydro-3-pyridinyl}amino)carbonyl]amino}-3-(4-methylphenyl)propanoic acid] returned a melting point of 128 to 130 °C. For the same molecule, at α4β1 integrin (Table 3), the IC50 is 2 nM.

`Cc1ccc([C@H](CC(=O)O)NC(=O)Nc2c(O)ccn(Cc3ccccc3Cl)c2=O)cc1` [(3S)-3-{[({1-[(2-chlorophenyl)methyl]-4-hydroxy-2-oxo-1,2-dihydro-3-pyridinyl}amino)carbonyl]amino}-3-(4-methylphenyl)propanoic acid] showed a melting point of 113 to 115 °C. Also, the IC50 at α4β1 integrin (Table 3) is 10 nM.

`Cc1ccc([C@H](CC(=O)O)NC(=O)Nc2c(O)c3ccccc3n(Cc3ccccc3Cl)c2=O)cc1` [(3S)-3-{[({1-[(2-chlorophenyl)methyl]-4-hydroxy-2-oxo-1,2-dihydro-3-quinolinyl}amino)carbonyl]amino}-3-(4-methylphenyl)propanoic acid] had a melting point of 134 to 136 °C. Moreover, the IC50 on α4β1 integrin (Table 3) is 8 nM.

Regarding `Cc1ccc([C@H](CC(=O)O)NC(=O)Nc2c(N)ccn(Cc3ccccc3Cl)c2=O)cc1` [(3S)-3-{[({4-amino-1-[(2-chlorophenyl)methyl]-2-oxo-1,2-dihydro-3-pyridinyl}amino)carbonyl]amino}-3-(4-methylphenyl)propanoic acid], the IC50 on α4β1 integrin (Table 3) is 10 nM.

As for `Cc1ccc([C@H](CC(=O)O)NC(=O)Nc2c(N)cc(C)n(Cc3ccccc3Cl)c2=O)cc1` [(3S)-3-{[({4-amino-1-[(2-chlorophenyl)methyl]-6-methyl-2-oxo-1,2-dihydro-3-pyridinyl}amino)carbonyl]amino}-3-(4-methylphenyl)propanoic acid], on α4β1 integrin (Table 3), the IC50 was 10 nM.

Molecule `Cc1ccc([C@H](CC(=O)O)NC(=O)Nc2c(OCc3ccccc3)cc(C)n(Cc3ccccc3)c2=O)cc1` [(3S)-3-{[({6-methyl-2-oxo-1-(phenylmethyl)-4-[(phenylmethyl)oxy]-1,2-dihydro-3-pyridinyl}amino)carbonyl]amino}-3-(4-methylphenyl)propanoic acid] gave a melting point of 124 to 126 °C. The IC50 at α4β1 integrin (Table 3) is 5 nM.
